According to patent US12285428B2 (IMBRIA PHARMACEUTICALS, INC., priority 2021, dated 2025):

Experiments:
[1] = FIH study, all parts combined: plasma PK; assay type: in vivo, human; conditions: all blood samples of subjects that received IMB-1018972
Text: The study started with the SAD part.

healthy subjects = assay: FIH study, multiple-dose MR part: safety and tolerability; assay type: in vivo, human
Experimental: AEs were recorded from (first) admission until completion of the follow-up visit. Any clinically significant observations in results of clinical laboratory, 12-lead ECGs, vital signs, or physical examinations were recorded as AEs.
A treatment-emergent AE (TEAE) was defined as any event not present prior to (the first) administration of the study drug or any event already present that worsened in either severity or frequency following exposure to the study drug.
At several time points before and after drug administration, subjects were asked nonleading questions to determine the occurrence of AEs. Subjects were asked in general terms about any AEs at regular intervals during the study. In addition, all AEs reported spontaneously during the course of the study were recorded. Details included description of the event, date and time of onset, date and time of end, total duration, severity, relationship to study drug, intervention, seriousness, and outcome. All answers were interpreted by the Investigator and were recorded in the eCRF. All AEs were classified according to the Medical Dictionary for Regulatory Activities (MedDRA; Version 22.0) for AEs.
The severity of the AEs was rated as mild, moderate, or severe; the relationship between the AEs and the study drug was indicated as none, unlikely, possibly, likely, or definitely. Adverse events assessed as possibly, likely, or definitely were considered related to the study drug; AEs assessed as none or unlikely were considered not related to the study drug.

COc1ccc(CN2CCN(CCOC(=O)c3cccnc3)CC2)c(OC)c1OC [IMB-1018972, 2-[4-[(2,3,4-trimethoxyphenyl)methyl]piperazin-1-yl]ethyl pyridine-3-carboxylate]
IMB-1018972 in plasma [1]: could be measured in only few plasma samples
Severity of flushing (2 subjects) (healthy subjects; 200 mg 8-hour MR q12h, fed): mild
Severity of all TEAEs (healthy subjects; multiple-dose MR part): mild
Number of TEAEs (healthy subjects; multiple-dose MR part (N=12)): 40
Number of TEAEs considered not related to the study drug (healthy subjects; multiple-dose MR part (N=12)): 30
Number of TEAEs considered related to the study drug (healthy subjects; multiple-dose MR part (N=12)): 10
Number of TEAEs, SOC gastrointestinal disorders (healthy subjects; multiple-dose MR part (N=12)): 9
Number of TEAEs, SOC general disorders and administration site conditions (healthy subjects; multiple-dose MR part (N=12)): 4
Number of TEAEs, SOC musculoskeletal and connective tissue disorders (healthy subjects; multiple-dose MR part (N=12)): 4
Number of TEAEs, SOC nervous system disorders (healthy subjects; multiple-dose MR part (N=12)): 9
Number of TEAEs, SOC renal and urinary disorders (pollakiuria) (healthy subjects; multiple-dose MR part (N=12)): 4
Number of drug-related TEAEs of flushing (healthy subjects; multiple-dose MR part (N=12)): 2
Number of drug-related TEAEs of pollakiuria (healthy subjects; multiple-dose MR part (N=12)): 4
Number of drug-related TEAEs, nervous system disorders (healthy subjects; multiple-dose MR part (N=12)): 2
Subjects reporting TEAEs (healthy subjects; multiple-dose MR part (N=12)): 100%
Subjects reporting TEAEs considered not related to the study drug (healthy subjects; multiple-dose MR part (N=12)): 75%
Subjects reporting TEAEs considered related to the study drug (healthy subjects; multiple-dose MR part (N=12)): 58.3%
Subjects reporting TEAEs, SOC gastrointestinal disorders (healthy subjects; multiple-dose MR part (N=12)): 41.7%
Subjects reporting TEAEs, SOC general disorders and administration site conditions (healthy subjects; multiple-dose MR part (N=12)): 33.3%
Subjects reporting TEAEs, SOC musculoskeletal and connective tissue disorders (healthy subjects; multiple-dose MR part (N=12)): 33.3%
Subjects reporting TEAEs, SOC nervous system disorders (healthy subjects; multiple-dose MR part (N=12)): 58.3%
Subjects reporting TEAEs, SOC renal and urinary disorders (pollakiuria) (healthy subjects; multiple-dose MR part (N=12)): 33.3%
Subjects reporting drug-related TEAEs of flushing (healthy subjects; multiple-dose MR part (N=12)): 16.7%
Subjects reporting drug-related TEAEs of pollakiuria (healthy subjects; multiple-dose MR part (N=12)): 33.3%
Subjects reporting drug-related TEAEs, nervous system disorders (healthy subjects; multiple-dose MR part (N=12)): 16.7%
